In article PMC2734176, “The Aurora Kinase in Trypanosoma brucei Plays Distinctive Roles in Metaphase-Anaphase Transition and Cytokinetic Initiation” (PLoS Pathogens, 2009) one finds IC50 data, which are given here for one compound.

This assay deals with T1, TbAUK1 (recombinant GST-tagged TbAUK1) (Trypanosoma brucei, UniProt Q384J7).
T1 construct: gene AUK1; no tag cleavage mentioned; tested without TbCPC1/TbCPC2
T1 sequence (Q384J7 1-309): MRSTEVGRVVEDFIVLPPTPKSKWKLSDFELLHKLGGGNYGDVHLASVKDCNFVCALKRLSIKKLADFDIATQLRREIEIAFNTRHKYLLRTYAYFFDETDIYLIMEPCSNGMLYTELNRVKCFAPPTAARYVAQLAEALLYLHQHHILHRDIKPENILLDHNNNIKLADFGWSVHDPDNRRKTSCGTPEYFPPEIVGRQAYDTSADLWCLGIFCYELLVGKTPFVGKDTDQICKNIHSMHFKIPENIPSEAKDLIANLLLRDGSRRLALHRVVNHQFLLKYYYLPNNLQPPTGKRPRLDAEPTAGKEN
Kind of assay: in vitro kinase assay, […] phosphorylation of GST-histone H3, SDS-PAGE and Phosphor-Imager. The class given is biochemical.

Consider `Cc1cc(Nc2cc(N3CCN(C)CC3)nc(Sc3ccc(NC(=O)C4CC4)cc3)n2)[nH]n1` [VX-680], for which the concentration for half-maximal inhibition (IC50) is 190 nM.

As a reminder, the IC50 is the concentration needed to halve the response being measured.
